Literature values, collected in patent US9974804B1, “Strontium-based composition, product, and method of using the same to control progression of osteoarthritis osteoporosis and tooth decay” (priority 2017, dated 2018).

How the values were obtained:
[1] = supplemented in the human diet
[2] = compared to placebo group
[3] = three-year daily use, compared to the control group
[4] = osteoporosis; daily doses of 6.4 grams for months to years

In the case of O=C([O-])[O-].[Sr+2] [strontium carbonate], the tolerability / toxicity [1] is listed as “well tolerated without reported toxicity”.

For [Sr+2] [strontium], the “time after which fifty percent of bone strontium disappears” value (after strontium supplementation is discontinued) is listed as 10 weeks and the “daily renal clearance relative to that of calcium” value (renal tubule excretion) is listed as “about three”.

In the case of N#Cc1c(N(CC(=O)[O-])CC(=O)[O-])sc(C(=O)[O-])c1CC(=O)[O-].[Sr+2].[Sr+2] [strontium ranelate], the “increase in osteoblast activity parameters” value [2] is given as ~10%, the “trabecular and cortical bone thickness” value [2] is given as 14-18% and the “reduction in hip fracture” value [3] is given as 36%. For the same compound, the “reduction in nonvertebral fracture” value [3] was 19% and the “reduction in vertebral fracture” value [3] was ~49%.

In the case of CC(O)C(=O)[O-].CC(O)C(=O)[O-].[Sr+2] (stereo not drawn) [strontium lactate], the marked subjective improvement [4] is listed as 84%.
